Measurements reported in patent US12662489B2 (Sitryx Therapeutics Limited, priority 2023, dated 2026).

What was measured:
[1] = test system: human CD4+ T cells; assay: Human CD4+ T-cell proliferation assay (CFSE, CD3/28 beads); details: read-out: Proliferation IC50
Description: Cells were incubated at room temperature for 8 minutes in a rotator in the dark. 13 mL cRPMI was added to each tube and cells were centrifuged at 500×g for 4 minutes at room temperature before pellets were resuspended in 10 mL cRPMI. Cells were counted using the Auto2000 Cellometer and AO/PI viability stain and concentration adjusted to 0.6×10^6 cells/mL in cRPMI. […] Control wells were included for flow cytometry and edge wells were filled with 200 μL 1×dPBS. Cells were incubated at 37° C., 5% CO2 for 2 days before compound treatment. […] Cells were incubated at 37° C., 5% CO2 for a further 2 days prior to flow staining and supernatant harvest.
On the final day plates were centrifuged at 500×g for 4 minutes at room temperature. 125 μL of supernatants were transferred to a V bottom 96 well polystyrene plate and stored at −80° C. Plates were gently vortexed to disrupt the cell pellets before 125 μL 1×PBS was added to each well. Plates were centrifuged at 500×g for 4 minutes at room temperature and supernatants removed from the plates by aspirating. Plates were gently vortexed and 30 μL of live/dead stain (Invitrogen, L34975) in 1×dPBS was added and incubated for 15 minutes in the dark at 4° C. […] 100 μL of flow cytometry buffer was added and plates were centrifuged at 500×g for 4 minutes before supernatants were aspirated from the plates. Wells were resuspended in 200 μL flow cytometry buffer and plates stored at 4° C. before being run on the flow cytometer.
Data was analysed using FlowJo and the compensation matrix applied to all samples. The gates were set using unstained and unstimulated samples.

[2] = target: T1, MTHFD1 recombinant human enzyme (Homo sapiens, UniProt P11586); assay: MTHFD1 inhibition assay (NAD(P)H-Glo luminescence); details: MTHFD1 IC50, recombinant human enzyme 200 nM, NADP, band
T1 sequence (P11586 2-291 limits assumed): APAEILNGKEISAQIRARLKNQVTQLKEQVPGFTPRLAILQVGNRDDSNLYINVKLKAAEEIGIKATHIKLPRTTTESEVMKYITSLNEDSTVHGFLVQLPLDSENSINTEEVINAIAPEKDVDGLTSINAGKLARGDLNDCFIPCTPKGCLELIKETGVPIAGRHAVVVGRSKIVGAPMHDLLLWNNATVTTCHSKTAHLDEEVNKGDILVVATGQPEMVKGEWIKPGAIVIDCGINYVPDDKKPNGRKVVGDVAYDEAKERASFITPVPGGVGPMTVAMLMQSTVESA

[3] = target: T2, MTHFD2 recombinant human enzyme (Homo sapiens, UniProt P13995); assay: MTHFD2 inhibition assay (NAD(P)H-Glo luminescence); details: for MTHFD1/MTHFD2 IC50 ratio: selectivity of MTHFD2 inhibition over MTHFD1, band
T2 sequence (P13995 36-350): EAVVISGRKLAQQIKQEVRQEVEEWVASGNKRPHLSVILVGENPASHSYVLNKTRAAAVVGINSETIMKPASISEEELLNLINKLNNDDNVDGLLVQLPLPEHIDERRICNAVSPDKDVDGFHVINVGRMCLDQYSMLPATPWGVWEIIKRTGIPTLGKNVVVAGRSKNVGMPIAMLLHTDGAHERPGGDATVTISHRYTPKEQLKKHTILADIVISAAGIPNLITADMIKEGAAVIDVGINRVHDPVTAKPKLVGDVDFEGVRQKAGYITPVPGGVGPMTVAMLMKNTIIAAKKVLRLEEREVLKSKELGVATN

Row | SMILES | IC50 [2] | IC50 [3] | MTHFD1/MTHFD2 IC50 ratio [3] | IC50 [1]
1 | [2H]C([2H])([2H])Oc1cc(C(=O)N2CCc3c(c(=O)oc4c(C)c(N5CCN(C)[C@@H](COC)C5)cc(C)c34)C2)c(F)cc1C(=O)NS(=O)(=O)N1C2CCC1CC2 [Example 250, (R)-N-((7-azabicyclo[2.2.1]heptan-7-yl)sulfonyl)-5-fluoro-2-(methoxy-d3)-4-(8-(3-(methoxymethyl)-4-methylpiperazin-1-yl)-7,10-dimethyl-5-oxo-1,3,4,5-tetrahydro-2H-chromeno[3,4-c]pyridine-3-carbonyl)benzamide] | 1 to 5 µM | 0.001 to 0.01 µM | J (>30) | 0.03 to 0.1 µM
2 | COC[C@H]1CN(c2cc(C)c3c4c(c(=O)oc3c2C)CN(C(=O)c2cc(N(C)C)c(C(=O)NS(=O)(=O)N3C5CCC3CC5)cc2F)CC4)CCN1C [Example 255, (R)-N-((7-azabicyclo[2.2.1]heptan-7-yl)sulfonyl)-2-(dimethylamino)-5-fluoro-4-(8-(3-(methoxymethyl)-4-methylpiperazin-1-yl)-7,10-dimethyl-5-oxo-1,3,4,5-tetrahydro-2H-chromeno[3,4-c]pyridine-3-carbonyl)benzamide] | 1 to 5 µM | 0.001 to 0.01 µM | J (>30) | 0.01 to 0.03 µM
3 | COC[C@H]1CN(c2cc(C)c3c4c(c(=O)oc3c2C)CN(C(=O)c2ccc(C(=O)NS(=O)(=O)N3C[C@H]5CCC[C@H]5C3)cc2)CC4)CCN1C [Example 210, N-(((3aR,6a S)-hexahydrocyclopenta[c]pyrrol-2(1H)-yl)sulfonyl)-4-(8-((R)-3-(methoxymethyl)-4-methylpiperazin-1-yl)-7,10-dimethyl-5-oxo-1,3,4,5-tetrahydro-2H-chromeno[3,4-c]pyridine-3-carbonyl)benzamide] | 1 to 5 µM | 0.01 to 0.1 µM | J (>30) | > 5 µM
4 | COC[C@H]1CN(c2cc(Cl)c3c4c(c(=O)oc3c2C)CN(C(=O)c2cc(N(C)C)c(C(=O)NS(=O)(=O)N3CC[C@H](F)C3)cc2F)CC4)CCN1C [Example 302, 4-(10-chloro-8-((R)-3-(methoxymethyl)-4-methylpiperazin-1-yl)-7-methyl-5-oxo-1,3,4,5-tetrahydro-2H-chromeno[3,4-c]pyridine-3-carbonyl)-2-(dimethylamino)-5-fluoro-N-(((S)-3-fluoropyrrolidin-1-yl)sulfonyl)benzamide] | 0.1 to 1 µM | 0.01 to 0.1 µM | J (>30) | 0.01 to 0.03 µM
5 | COC[C@H]1CN(c2cc(C)c3c4c(c(=O)oc3c2C)CN(C(=O)c2ccc(C(=O)NS(=O)(=O)N(C)C3CCCC3)cc2F)CC4)CCN1C [Example 199, (R)-N-(N-cyclopentyl-N-methylsulfamoyl)-3-fluoro-4-(8-(3-(methoxymethyl)-4-methylpiperazin-1-yl)-7,10-dimethyl-5-oxo-1,3,4,5-tetrahydro-2H-chromeno[3,4-c]pyridine-3-carbonyl)benzamide] | 1 to 5 µM | 0.1 to 1 µM | H (>9.0 to 30) | 0.1 to 1 µM
6 | COC[C@H]1CN(c2cc(C)c3c4c(c(=O)oc3c2C)CN(C(=O)c2cc(F)c(C(=O)NS(=O)(=O)N3CCCC3)cc2OC)CC4)CCN1C [Example 266, (R)-2-fluoro-5-methoxy-4-(8-(3-(methoxymethyl)-4-methylpiperazin-1-yl)-7,10-dimethyl-5-oxo-1,3,4,5-tetrahydro-2H-chromeno[3,4-c]pyridine-3-carbonyl)-N-(pyrrolidin-1-ylsulfonyl)benzamide] | 0.1 to 1 µM | 0.001 to 0.01 µM | J (>30) | 1 to 5 µM
7 | COC[C@H]1CN(c2cc(C)c3c4c(c(=O)oc3c2C)CN(C(=O)c2ccc(C(=O)NS(=O)(=O)N3CCCC3)c(F)c2)CC4)CCN1C [Example 265, (R)-2-fluoro-4-(8-(3-(methoxymethyl)-4-methylpiperazin-1-yl)-7,10-dimethyl-5-oxo-1,3,4,5-tetrahydro-2H-chromeno[3,4-c]pyridine-3-carbonyl)-N-(pyrrolidin-1-ylsulfonyl)benzamide] | 0.1 to 1 µM | 0.001 to 0.01 µM | J (>30) | 0.1 to 1 µM
8 | COC[C@H]1CN(c2cc(C)c3c4c(c(=O)oc3c2C)CN(C(=O)c2ccc(C(=O)NS(=O)(=O)N3C5CCC3CC5)c(OC)c2)CC4)CCN1C [Example 226, (R)-N-((7-azabicyclo[2.2.1]heptan-7-yl)sulfonyl)-2-methoxy-4-(8-(3-(methoxymethyl)-4-methylpiperazin-1-yl)-7,10-dimethyl-5-oxo-1,3,4,5-tetrahydro-2H-chromeno[3,4-c]pyridine-3-carbonyl)benzamide] | 0.1 to 1 µM | 0.01 to 0.1 µM | J (>30) | 0.03 to 0.1 µM
9 | COC[C@H]1CN(c2cc(Cl)c3c4c(c(=O)oc3c2C)CN(C(=O)c2cc(N(C)C)c(C(=O)NS(=O)(=O)N(C)C)cc2Cl)CC4)CCN1C [Example 291, (R)-5-chloro-4-(10-chloro-8-(3-(methoxymethyl)-4-methylpiperazin-1-yl)-7-methyl-5-oxo-1,3,4,5-tetrahydro-2H-chromeno[3,4-c]pyridine-3-carbonyl)-2-(dimethylamino)-N-(N,N-dimethylsulfamoyl)benzamide] | 1 to 5 µM | 0.01 to 0.1 µM | J (>30) | 0.03 to 0.1 µM

Continued, in another order:

Row | IC50 [2] | IC50 [3] | MTHFD1/MTHFD2 IC50 ratio [3] | SMILES | IC50 [1]
10 | 0.1 to 1 µM | 0.001 to 0.01 µM | J (>30) | COC[C@H]1CN(c2cc(C)c3c4c(c(=O)oc3c2C)CN(C(=O)c2cc(OC)c(C(=O)NS(=O)(=O)N3CCCC3)cc2F)CC4)CCN1C [Example 224, (R)-5-fluoro-2-methoxy-4-(8-(3-(methoxymethyl)-4-methylpiperazin-1-yl)-7,10-dimethyl-5-oxo-1,3,4,5-tetrahydro-2H-chromeno[3,4-c]pyridine-3-carbonyl)-N-(pyrrolidin-1-ylsulfonyl)benzamide] | 0.03 to 0.1 µM
11 | 0.01 to 0.1 µM | 0.001 to 0.01 µM | F (<3) | COC[C@H]1CN(c2cc(C)c3c4c(c(=O)oc3c2C)CN(C(=O)c2ccc(C(=O)NS(=O)(=O)N3CCCC3)c(OC(C)C)c2F)CC4)CCN1C [Example 149, (R)-3-fluoro-2-isopropoxy-4-(8-(3-(methoxymethyl)-4-methylpiperazin-1-yl)-7,10-dimethyl-5-oxo-1,3,4,5-tetrahydro-2H-chromeno[3,4-c]pyridine-3-carbonyl)-N-(pyrrolidin-1-ylsulfonyl)benzamide] | 0.001 to 0.01 µM
12 | 0.1 to 1 µM | 0.01 to 0.1 µM | G (^ 3 to 9.0) | CCOc1cc(C(=O)N2CCc3c(c(=O)oc4c(C)c(N5CCN(C)[C@@H](COC)C5)cc(C)c34)C2)c(F)cc1C(=O)NS(=O)(=O)N1CCC(C)(C)C1 [Example 217, (R)-N-((3,3-dimethylpyrrolidin-1-yl)sulfonyl)-2-ethoxy-5-fluoro-4-(8-(3-(methoxymethyl)-4-methylpiperazin-1-yl)-7,10-dimethyl-5-oxo-1,3,4,5-tetrahydro-2H-chromeno[3,4-c]pyridine-3-carbonyl)benzamide] | 0.01 to 0.03 µM
13 | 0.01 to 0.1 µM | 0.001 to 0.01 µM | J (>30) | COC[C@H]1CN(c2cc(C)c3c4c(c(=O)oc3c2C)CN(C(=O)c2cc(OC3CC3)c(C(=O)NS(=O)(=O)N3CC5CC5C3)cc2F)CC4)CCN1C (stereo partly drawn) [Example 264, N-((3-azabicyclo[3.1.0]hexan-3-yl)sulfonyl)-2-cyclopropoxy-5-fluoro-4-(8-((R)-3-(methoxymethyl)-4-methylpiperazin-1-yl)-7,10-dimethyl-5-oxo-1,3,4,5-tetrahydro-2H-chromeno[3,4-c]pyridine-3-carbonyl)benzamide] | 0.01 to 0.03 µM
14 | 0.1 to 1 µM | 0.001 to 0.01 µM | J (>30) | COC[C@H]1CN(c2cc(C)c3c4c(c(=O)oc3c2C)CN(C(=O)c2cc(N(C)C)c(C(=O)NS(=O)(=O)N3CCC[C@H]3COC)cc2F)CC4)CCN1C [Example 312, 2-(dimethylamino)-5-fluoro-4-(8-((R)-3-(methoxymethyl)-4-methylpiperazin-1-yl)-7,10-dimethyl-5-oxo-1,3,4,5-tetrahydro-2H-chromeno[3,4-c]pyridine-3-carbonyl)-N-(((S)-2-(methoxymethyl)pyrrolidin-1-yl)sulfonyl)benzamide] | 0.01 to 0.03 µM
15 | 0.01 to 0.1 µM | 0.001 to 0.01 µM | G (^ 3 to 9.0) | COC[C@H]1CN(c2cc(C)c3c4c(c(=O)oc3c2C)CN(C(=O)c2ccc(C(=O)NS(=O)(=O)N3CCCC3)c(OC)c2F)CC4)CCN1C [Example 135, (R)-3-fluoro-2-methoxy-4-(8-(3-(methoxymethyl)-4-methylpiperazin-1-yl)-7,10-dimethyl-5-oxo-1,3,4,5-tetrahydro-2H-chromeno[3,4-c]pyridine-3-carbonyl)-N-(pyrrolidin-1-ylsulfonyl)benzamide] | 0.01 to 0.03 µM
